Data taken from US11440880B2, “Thalidomide analogs and methods of use” (The USA, as represented by the Secretary, Department of …, priority 2015, dated 2022).

Assays:
[1] = system: nitrite levels in the culture media; assay: Nitrite level (Griess Reagent System) in LPS-challenged RAW 264.7 cells; format: cell-based, mouse; parameters: key: NS=not significant; a “+” sign=anti-inflammatory or increased cell numbers; a “−” sign=cell toxicity or pro-inflammatory; details: LPS 30 or 60 ng/mL, 24 h
Summary of the method: (§1)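 RAW 264.7 cells pretreated 1 h with compound in DMSO vehicle, then challenged with LPS (30 or 60 ng/mL) for 24 h at 37° C. Conditioned-media nitrite by Griess (520 nm, sodium nitrite standard curve, 1.5 μM cutoff) in μM; mouse TNF-α by ELISA as pg/ml or % change from control.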

[2] = system: RAW 264.7 cells; assay: Cell viability (CellTiter 96 AQueous One) of LPS-challenged RAW 264.7 cells; format: cell-based, mouse; parameters: key: NS=not significant; a “+” sign=anti-inflammatory or increased cell numbers; a “−” sign=cell toxicity or pro-inflammatory
Summary of the method: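 RAW 264.7 murine macrophages pretreated 1 h with compound or DMSO vehicle, then challenged with LPS (serotype 055:B5) at 30 or 60 ng/mL final for 24 h. After media replacement, viability measured by tetrazolium (MTS) conversion, absorbance at 490 nm, reported as O.D.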

[3] = system: TNF-α protein; assay: TNF-α protein level (ELISA) in LPS-challenged RAW 264.7 cells; format: cell-based, mouse; parameters: key: NS=not significant; a “+” sign=anti-inflammatory or increased cell numbers; a “−” sign=cell toxicity or pro-inflammatory; details: LPS 30 or 60 ng/mL, 24 h
Summary of the method: as §1

[4] = system: PC3 cells (xenografted tumors); assay: PC3 xenograft efficacy in SCID mice; format: in vivo; details: 10 mg/kg; for tumor burden: day 0 to day 24
Excerpt: (§2) Compounds 29 and 86 were selected for in vivo efficacy studies of human prostate cancer. Mice positive for the severe combined immune deficieny (SCID) spontaneous mutation Prkdc^scid are deficient in functional T cells and B cells, have reduced levels of gamma globulins and lymphopenia (low white blood cell count). Due to their comprised immune system, SCID mice are amenable to xenogeneic grafts. Before starting the efficacy study, a maximum tolerated dose was established for each compound. Compound administration was by tail vein injection (IV) with a 27-gauge needle. A volume of 100 uL per 25 g of body weight was injected for each compound and dose. Compounds 29 and 86 were formulated in 12% DMSO and 88% TPGS (tocopherol polyethylene glycol succinate) in distilled sterile water. This formulation was well tolerated in vehicle control mice. The maximum tolerated dose was defined as the highest dose at which 100% of animals could tolerate treatment with mild or no toxicity for a minimum of one week of treatment. Initially, each compound was administered 3× per week to five mice per group, at 5 and 10 mg/kg. Each dose level was monitored for at least one week. […] Animals were weighed daily during the treatment courses. […] The selected dose for further experimentation was therefore 10 mg/kg.
When the tumors of SCID mice xenografted with PC3 cells were palpable, mice were dosed with 10 mg/kg of compound 29 or compound 86, or given the vehicle alone. From day 0 to day 24, the tumor sizes in vehicle-treated animals increased by 301.33% (FIG. 15, tumor size=401.33%±35.98%).

[5] = Precipitation of the IV formulation; format: physicochemical; details: 20 mg/kg; 12% DMSO and 88% TPGS in distilled sterile water
Excerpt: as §2

[6] = system: 59 cancer cell lines; assay: One-dose anti-cancer screening in 59 cancer cell lines; format: cell-based; details: 1×10^−5 M; with the exception of leukemic cell lines
Excerpt: As well as being immunomodulatory and anti-angiogenic, lenalidomide and pomalidomide are directly cytotoxic to cancer cells. […] Compounds 29 and 86 were screened at a concentration of 1×10^−5 M (FIGS. 11 and 12, respectively). Calculated values from 0-100 indicate growth inhibition relative to a no-drug control, and values less than 0 indicate lethality, relative to the number of cells at time zero. A value of 100 means no growth inhibition. A value of 40 means 60% growth inhibition. A value of 0 means no net growth over the course of the experiment. A value of −40 means 40% lethality. A value of −100 means all cells are dead.

[7] = system: human saphenous vein sections (microvessel outgrowth); assay: Human saphenous vein assay of angiogenesis (ex vivo); format: cell-based; details: for vessel outgrowth: 10 days of incubation; for inhibition of vessel outgrowth: in words
Procedure: The saphenous vein was cleaned of subcutaneous tissue and embedded in Matrigel® matrix as previously described. After 10 days of incubation, the transverse sections of the veins were imaged. The outgrowth between the vehicle and no treatment (media) control was equivalent (106.65%±20.14, n=2 and 103.35%±4.06, n=2 respectively; FIGS. 13A and 13B).

[8] = Maximum tolerated dose in SCID mice; format: in vivo; details: 3× per week; for deaths / drug-related toxicity / weight loss: 5 mg/kg and 10 mg/kg IV; for MTD: SCID, mouse, in vivo, IV, read-out: selected dose from the maximum tolerated dose study
Excerpt: as §2

Q: What does the source list for `O=C1CCC(N2C(=O)c3cccc([N+](=O)[O-])c3C2=O)C(=O)N1` (centres unmarked) [Compound 5]?
A: Nitrite ([1]; 1 μM): NS; Nitrite ([1]; 10 μM): NS; Nitrite ([1]; 30 μM): NS; Nitrite ([1]; 60 μM): NS; Nitrite ([1]; 100 μM): NS; Viability ([2]; 1 μM): NS; Viability ([2]; 10 μM): NS; Viability ([2]; 30 μM): NS; Viability ([2]; 60 μM): NS; Viability ([2]; 100 μM): NS; TNF-α ([3]; 1 μM): NS; TNF-α ([3]; 10 μM): NS; TNF-α ([3]; 30 μM): NS; TNF-α ([3]; 60 μM): NS; TNF-α ([3]; 100 μM): NS

Q: With `O=C1NC(=S)CCC1N1C(=O)c2cccc([N+](=O)[O-])c2C1=O` (centres unmarked) [Compound 7, 2-(2-Oxo-6-thioxo-3-piperidinyl)-4-nitro-1H-isoindole-1,3(2H)-dione] as the compound, how does the Nitrite ([1]; 1 μM) read?
A: NS

Q: And the Nitrite ([1]; 10 μM)?
A: NS

Q: What about the Nitrite ([1]; 30 μM) of the same compound?
A: +

Q: And the Nitrite ([1]; 60 μM)?
A: +

Q: And the Nitrite ([1]; 100 μM)?
A: +

Q: And the Viability ([2]; 1 μM)?
A: NS

Q: And the Viability ([2]; 10 μM)?
A: NS

Q: What about the Viability ([2]; 30 μM) of the same compound?
A: NS

Q: What about the Viability ([2]; 60 μM) of the same compound?
A: NS

Q: What about the Viability ([2]; 100 μM) of the same compound?
A: +

Q: And the TNF-α ([3]; 1 μM)?
A: NS

Q: And the TNF-α ([3]; 10 μM)?
A: NS

Q: What about the TNF-α ([3]; 30 μM) of the same compound?
A: NS

Q: And the TNF-α ([3]; 60 μM)?
A: NS

Q: And the TNF-α ([3]; 100 μM)?
A: +

Q: With `Nc1cccc2c1CN(C1CCC(=O)NC1=O)C2=S` (centres unmarked) [Compound 29] as the compound, how does the Viability ([2]; 3 μM) read?
A: −

Q: And the Viability ([2]; 10 μM)?
A: −

Q: And the Viability ([2]; 30 μM)?
A: −

Q: What about the tumor burden [4] of the same compound?
A: No reduction in tumor burden

Q: And the “behaviour of the compound in the dosing solution” value [5]?
A: precipitate in the solution

Q: What about the “activity on cell growth / cytotoxicity” value [6] of the same compound?
A: very little activity

Q: What about the TNF-α ([3]; 3 μM) of the same compound?
A: NS

Q: What about the TNF-α ([3]; 10 μM) of the same compound?
A: NS

Q: What about the TNF-α ([3]; 30 μM) of the same compound?
A: NS

Q: And the vessel outgrowth ([7]; 5 μM)?
A: 155.12%±23.69

Q: What about the vessel outgrowth ([7]; 10 μM) of the same compound?
A: 168.06%±14.87

Q: What about the vessel outgrowth ([7]; 50 μM) of the same compound?
A: 102.38%±16.78

Q: And the vessel outgrowth ([7]; 100 μM)?
A: 62.53%±13.69

Q: And the “inhibition of vessel outgrowth” value ([7]; 10 μM (FIGS. 13D, 13E))?
A: no inhibition

Q: And the “deaths / drug-related toxicity” value [8]?
A: no animals died or needed to be euthanized due to drug-related toxicity

Q: What about the weight loss [8] of the same compound?
A: no significant weight loss

Q: What about the MTD [8] of the same compound?
A: 10 mg/kg

Q: With `Nc1cccc2c1CN(C13CC4CC(CC(C4)C1)C3)C2=O` [Compound 77, 2,3-Dihydro-4-amino-2-(tricyclo[3.3.1.1^3,7]dec-1-yl)-1H-isoindol-1-one] as the compound, how does the Nitrite ([1]; 1 μM) read?
A: NS

Q: What about the Nitrite ([1]; 10 μM) of the same compound?
A: NS

Q: What about the Nitrite ([1]; 30 μM) of the same compound?
A: NS

Q: What about the Viability ([2]; 1 μM) of the same compound?
A: NS

Q: And the Viability ([2]; 10 μM)?
A: NS

Q: And the Viability ([2]; 30 μM)?
A: NS

Q: What about the TNF-α ([3]; 1 μM) of the same compound?
A: NS

Q: And the TNF-α ([3]; 10 μM)?
A: NS

Q: What about the TNF-α ([3]; 30 μM) of the same compound?
A: NS

Q: Which Nitrite ([1]; 1 μM) does the source give for `CC(N1Cc2c(N)cccc2C1=O)C12CC3CC(CC(C3)C1)C2` (centres unmarked) [Compound 81] here?
A: NS

Q: And the Nitrite ([1]; 10 μM)?
A: NS

Q: And the Nitrite ([1]; 30 μM)?
A: +

Q: What about the Viability ([2]; 1 μM) of the same compound?
A: NS

Q: What about the Viability ([2]; 10 μM) of the same compound?
A: NS

Q: And the Viability ([2]; 30 μM)?
A: NS

Q: What about the TNF-α ([3]; 1 μM) of the same compound?
A: NS

Q: What about the TNF-α ([3]; 10 μM) of the same compound?
A: NS

Q: And the TNF-α ([3]; 30 μM)?
A: +

Q: Which Nitrite ([1]; 1 μM) does the source give for `O=C1c2ccccc2CN1C12CC3CC(CC(O)(C3)C1)C2` [Compound 86, 2,3-Dihydro-2-(tricyclo[3.3.1.1^3,7]dec-1-hydroxy-3-yl)-1H-isoindol-1-one] here?
A: NS

Q: What about the Nitrite ([1]; 10 μM) of the same compound?
A: NS

Q: And the Nitrite ([1]; 30 μM)?
A: NS

Q: And the Viability ([2]; 1 μM)?
A: NS

Q: And the Viability ([2]; 10 μM)?
A: NS

Q: What about the Viability ([2]; 30 μM) of the same compound?
A: NS

Q: What about the tumor burden [4] of the same compound?
A: No reduction in tumor burden

Q: What about the “tumor size versus vehicle treated mice” value ([4]; p=0.07) of the same compound?
A: trend to separate

Q: What about the “behaviour of the compound in the dosing solution” value [5] of the same compound?
A: precipitate in the solution

Q: And the “activity on cell growth / cytotoxicity” value [6]?
A: very little activity

Q: And the TNF-α ([3]; 1 μM)?
A: NS

Q: And the TNF-α ([3]; 10 μM)?
A: +

Q: What about the TNF-α ([3]; 30 μM) of the same compound?
A: +

Q: And the “inhibition of vessel outgrowth” value ([7]; 10 μM (FIGS. 13D, 13E))?
A: vastly reduced outgrowth

Q: What about the “inhibition of vessel outgrowth” value ([7]; all concentrations) of the same compound?
A: inhibit outgrowth at all concentrations

Q: And the “deaths / drug-related toxicity” value [8]?
A: no animals died or needed to be euthanized due to drug-related toxicity

Q: And the weight loss [8]?
A: no significant weight loss

Q: What about the MTD [8] of the same compound?
A: 10 mg/kg
